Assays:
[1] = target: GDP-bound NRAS wild-type protein (Homo sapiens, UniProt P01111); assay: Binding to NRAS by surface plasmon resonance (SPR), Single Cycle Kinetics; conditions: KD ratio NRAS/KRAS, class symbols
[2] = target: GDP-bound HRAS wild-type protein (Homo sapiens, UniProt P01112); assay: Binding to HRAS by surface plasmon resonance (SPR), Single Cycle Kinetics; conditions: KD ratio HRAS/KRAS, class symbols
GDP-bound HRAS wild-type protein, sequence (P01112 whole entry): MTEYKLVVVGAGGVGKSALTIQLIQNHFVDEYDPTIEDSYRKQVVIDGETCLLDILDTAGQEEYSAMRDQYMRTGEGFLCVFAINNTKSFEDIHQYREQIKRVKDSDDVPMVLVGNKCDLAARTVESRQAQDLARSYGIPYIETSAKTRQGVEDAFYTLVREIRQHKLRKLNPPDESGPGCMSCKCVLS

GDP-bound NRAS wild-type protein, sequence (P01111 whole entry): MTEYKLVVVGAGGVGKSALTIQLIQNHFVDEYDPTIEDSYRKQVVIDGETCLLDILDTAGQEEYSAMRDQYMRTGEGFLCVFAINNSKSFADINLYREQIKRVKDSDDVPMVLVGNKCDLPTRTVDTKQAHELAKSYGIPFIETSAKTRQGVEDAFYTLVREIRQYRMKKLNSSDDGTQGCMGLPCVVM

SMILES	NRAS/KRAS (ratio of KD value with respect to GDP-bound NRAS wild-type protein to KD value with respect to KRAS) [1]	HRAS/KRAS (ratio of KD value with respect to GDP-bound HRAS wild-type protein to KD value with respect to KRAS) [2]
C#CC[C@H]1C(=O)N[C@@H]([C@@H](C)CC)C(=O)N(C)CC(=O)N(C)[C@H]2C/C=C\CCN(C2=O)[C@@H](Cc2ccc(C(F)(F)F)cc2)C(=O)N(C)CC(=O)N[C@@H](CCc2ccc(C(F)(F)F)c(Cl)c2)C(=O)N2C[C@H](OCC)C[C@H]2C(=O)NC2(CC(C)(C)C2)C(=O)N(C)[C@@H](C2CCCC2)C(=O)N(C)[C@H](C(=O)N(C)CC)CC(=O)N1C [PP2844]	A (a compound having 10 or more and less than 20 is denoted as A)	A (a compound having 10 or more and less than 20 is denoted as A)
CCO[C@@H]1C[C@H]2C(=O)NC3(CCC3)C(=O)N(C)[C@@H](C3CCCC3)C(=O)N(C)[C@H](C(=O)N(C)CC)CC(=O)N(C)[C@@H](CC(C)C)C(=O)N[C@@H]([C@@H](C)CC)C(=O)N(C)CC(=O)N(C)[C@H]3C/C=C\CCN(C3=O)[C@@H](Cc3ccc(C(F)(F)F)cc3)C(=O)N(C)CC(=O)N[C@@H](CCc3ccc(Cl)c(Cl)c3)C(=O)N2C1 [PP2845]	AA (a compound having 20 or more is denoted as AA)	A (a compound having 10 or more and less than 20 is denoted as A)
CCO[C@@H]1C[C@H]2C(=O)NC3(CCC3)C(=O)N(C)[C@@H](C3CCCC3)C(=O)N(C)[C@H](C(=O)N(C)CC)CC(=O)N(C)[C@@H](CC(C)C)C(=O)N[C@@H]([C@@H](C)CC)C(=O)N(C)CC(=O)N(C)[C@H]3C/C=C\CCN(C3=O)[C@@H](Cc3ccc(C(F)(F)F)cc3)C(=O)N(C)CC(=O)N[C@@H](CCc3ccc(C(F)(F)F)c(OC)c3)C(=O)N2C1 [PP2846]	AA (a compound having 20 or more is denoted as AA)	A (a compound having 10 or more and less than 20 is denoted as A)
CCO[C@@H]1C[C@H]2C(=O)NC3(CCC3)C(=O)N(C)[C@@H](C3CCCC3)C(=O)N(C)[C@H](C(=O)N(C)CC)CC(=O)N(C)[C@@H](CC(C)C)C(=O)N[C@@H]([C@@H](C)CC)C(=O)N(C)CC(=O)N(C)[C@H]3C/C=C\CCN(C3=O)[C@@H](Cc3ccc(C(F)(F)F)cc3)C(=O)N(C)CC(=O)N[C@@H](CCc3ccc(C(F)(F)F)c(Cl)c3)C(=O)N2C1 [PP2847]	A (a compound having 10 or more and less than 20 is denoted as A)	A (a compound having 10 or more and less than 20 is denoted as A)
CCC[C@H]1C(=O)N[C@@H]([C@@H](C)CC)C(=O)N(C)CC(=O)N(C)[C@H]2C/C=C\CCN(C2=O)[C@@H](Cc2ccc(C(F)(F)F)cc2)C(=O)N(C)CC(=O)N[C@@H](CCc2ccc(CC)c(Cl)c2)C(=O)N2C[C@H](OCC)C[C@H]2C(=O)NC2(CC(C)(C)C2)C(=O)N(C)[C@@H](C2CCCC2)C(=O)N(C)[C@H](C(=O)N(C)C)CC(=O)N1C [PP2848]	A (a compound having 10 or more and less than 20 is denoted as A)	A (a compound having 10 or more and less than 20 is denoted as A)
CCC[C@H]1C(=O)N[C@@H]([C@@H](C)CC)C(=O)N(C)CC(=O)N(C)[C@H]2C/C=C\CCN(C2=O)[C@@H](Cc2ccc(C(F)(F)F)cc2)C(=O)N(C)CC(=O)N[C@@H](CCc2cc(F)c3c(c2)CCC3)C(=O)N2C[C@H](OCC)C[C@H]2C(=O)NC2(CC(C)(C)C2)C(=O)N(C)[C@@H](C2CCCC2)C(=O)N(C)[C@H](C(=O)N(C)C)CC(=O)N1C [PP2849]	A (a compound having 10 or more and less than 20 is denoted as A)	A (a compound having 10 or more and less than 20 is denoted as A)
CCC[C@H]1C(=O)N[C@@H]([C@@H](C)CC)C(=O)N(C2CC2)CC(=O)N(C)[C@H]2C/C=C\CCN(C2=O)[C@@H](Cc2ccc(C)cc2)C(=O)N(C)CC(=O)N[C@@H](CCc2ccc(C(F)(F)F)c(CC)c2)C(=O)N2C[C@H](OCC)C[C@H]2C(=O)NC2(CC(C)(C)C2)C(=O)N(C)[C@@H](C2CCCC2)C(=O)N(C)[C@H](C(=O)N(C)C)CC(=O)N1C [PP2870]	A (a compound having 10 or more and less than 20 is denoted as A)	A (a compound having 10 or more and less than 20 is denoted as A)
CCC[C@H]1C(=O)N[C@@H]([C@@H](C)CC)C(=O)N(C)CC(=O)N(C)[C@H]2C/C=C\CCN(C2=O)[C@@H](Cc2ccc(C(F)(F)F)cc2)C(=O)N(C)CC(=O)N[C@@H](CCc2cc(Cl)c3sccc3c2)C(=O)N2C[C@H](OCC)C[C@H]2C(=O)NC2(CC(C)(C)C2)C(=O)N(C)[C@@H](C(CC)CC)C(=O)N(C)[C@H](C(=O)N(C)C)CC(=O)N1C [PP2888]	AA (a compound having 20 or more is denoted as AA)	A (a compound having 10 or more and less than 20 is denoted as A)
CCC[C@H]1C(=O)N[C@@H]([C@@H](C)CC)C(=O)N(C)CC(=O)N(C)[C@H]2C/C=C\CCN(C2=O)[C@@H](Cc2ccc(C(F)(F)F)cc2)C(=O)N(C)CC(=O)N[C@@H](CCc2ccc3sc(C)c(C)c3c2)C(=O)N2C[C@H](OCC)C[C@H]2C(=O)NC2(CC(C)(C)C2)C(=O)N(C)[C@@H](C2CCCC2)C(=O)N(C)[C@H](C(=O)N(C)C)CC(=O)N1C [PP2889]	A (a compound having 10 or more and less than 20 is denoted as A)	A (a compound having 10 or more and less than 20 is denoted as A)
CCC[C@H]1C(=O)N[C@@H]([C@@H](C)CC)C(=O)N(C)CC(=O)N(C)[C@H]2C/C=C\CCN(C2=O)[C@@H](Cc2ccc(C)cc2)C(=O)N(C)CC(=O)N[C@@H](CCc2cc(Cl)c3sccc3c2)C(=O)N2C[C@H](OCC)C[C@H]2C(=O)NC2(CC(C)(C)C2)C(=O)N(C)[C@@H](C(CC)CC)C(=O)N(C)[C@H](C(=O)N(C)C)CC(=O)N1C [PP2890]	AA (a compound having 20 or more is denoted as AA)	A (a compound having 10 or more and less than 20 is denoted as A)
CCC[C@H]1C(=O)N[C@@H]([C@@H](C)CC)C(=O)N(C)CC(=O)N(C)[C@H]2C/C=C\CCN(C2=O)[C@@H](Cc2ccc(C)cc2)C(=O)N(C)CC(=O)N[C@@H](CCc2ccc3sc(C)c(C)c3c2)C(=O)N2C[C@H](OCC)C[C@H]2C(=O)NC2(CC(C)(C)C2)C(=O)N(C)[C@@H](C2CCCC2)C(=O)N(C)[C@H](C(=O)N(C)C)CC(=O)N1C [PP2891]	A (a compound having 10 or more and less than 20 is denoted as A)	B (a compound having 3 or more and less than 10 is denoted as B)
CCC[C@H]1C(=O)N[C@@H]([C@@H](C)CC)C(=O)N(C)CC(=O)N(C)[C@H]2C/C=C\CCN(C2=O)[C@@H](Cc2ccc(C(F)(F)F)cc2)C(=O)N(C)CC(=O)N[C@@H](CCc2ccc3sc(F)c(C)c3c2)C(=O)N2C[C@H](OCC)C[C@H]2C(=O)NC2(CC(C)(C)C2)C(=O)N(C)[C@@H](C(CC)CC)C(=O)N(C)[C@H](C(=O)N(C)C)CC(=O)N1C [PP2892]	A (a compound having 10 or more and less than 20 is denoted as A)	A (a compound having 10 or more and less than 20 is denoted as A)
CCC[C@H]1C(=O)N[C@@H]([C@@H](C)CC)C(=O)N(C)CC(=O)N(C)[C@H]2C/C=C\CCN(C2=O)[C@@H](Cc2ccc(C(F)(F)F)cc2)C(=O)N(C)CC(=O)N[C@@H](CCc2ccc3c(C)c(C)n(C)c3c2)C(=O)N2C[C@H](OCC)C[C@H]2C(=O)NC2(CC(C)(C)C2)C(=O)N(C)[C@@H](C2CCCC2)C(=O)N(C)[C@H](C(=O)N(C)C)CC(=O)N1C [PP2893]	A (a compound having 10 or more and less than 20 is denoted as A)	A (a compound having 10 or more and less than 20 is denoted as A)
CCC[C@H]1C(=O)N[C@@H]([C@@H](C)CC)C(=O)N(C)CC(=O)N(C)[C@H]2C/C=C\CCN(C2=O)[C@@H](Cc2ccc(C)cc2)C(=O)N(C)CC(=O)N[C@@H](CCc2ccc3sc(F)c(C)c3c2)C(=O)N2C[C@H](OCC)C[C@H]2C(=O)NC2(CC(C)(C)C2)C(=O)N(C)[C@@H](C(CC)CC)C(=O)N(C)[C@H](C(=O)N(C)C)CC(=O)N1C [PP2894]	AA (a compound having 20 or more is denoted as AA)	A (a compound having 10 or more and less than 20 is denoted as A)
CCC[C@H]1C(=O)N[C@@H]([C@@H](C)CC)C(=O)N(C)CC(=O)N(C)[C@H]2C/C=C\CCN(C2=O)[C@@H](Cc2ccc(C)cc2)C(=O)N(C)CC(=O)N[C@@H](CCc2ccc3c(C)c(C)n(C)c3c2)C(=O)N2C[C@H](OCC)C[C@H]2C(=O)NC2(CC(C)(C)C2)C(=O)N(C)[C@@H](C2CCCC2)C(=O)N(C)[C@H](C(=O)N(C)C)CC(=O)N1C [PP2895]	A (a compound having 10 or more and less than 20 is denoted as A)	A (a compound having 10 or more and less than 20 is denoted as A)
